This is an account of results in ChEMBL document CHEMBL3045092, “Synthesis and Fungicidal Activity of 2-Imino-3-(4-arylthiazol-2-yl)-thiazolidin-4-ones and Their 5-Arylidene Derivatives” (2000).

What all share (format): functional
What all share (conditions): read-out: GI

One assay deals with Aspergillus niger. Kind of assay: Fungicidal activity against Aspergillus niger assessed as growth inhibition at 50 ppm after 48 hr relative to untreated control.
The test system of another assay is Pythium aphanidermatum. Put plainly: Fungicidal activity against Pythium aphanidermatum assessed as growth inhibition at 50 ppm after 48 hr relative to untreated control.
For a further assay, the system named is Fusarium graminearum. Kind of assay: Fungicidal activity against Fusarium graminearum assessed as growth inhibition at 50 ppm after 48 hr relative to untreated control.
The test system of a further assay is Botrytis cinerea. Kind of assay: Fungicidal activity against Botryotinia fuckeliana assessed as growth inhibition at 50 ppm after 48 hr relative to untreated control.
In a further assay the test system is Pleurotus ostreatus. Put plainly: Fungicidal activity against Pleurotus ostreatus assessed as growth inhibition at 50 ppm after 48 hr relative to untreated control.
For another assay, the system named is Pyricularia oryzae. Put plainly: Fungicidal activity against Magnaporthe oryzae assessed as growth inhibition at 50 ppm after 48 hr relative to untreated control.
For the next assay, the system named is Gaeumannomyces graminis. Put plainly: Fungicidal activity against Gaeumannomyces graminis assessed as growth inhibition at 50 ppm after 48 hr relative to untreated control.

In the case of `N=C1S/C(=C\c2ccccc2Cl)C(=O)N1c1nc(-c2ccccc2)cs1`, the inhibition of growth at 50 ppm came to 23.6% in the assay with Aspergillus niger; 17.2% in the assay with Pythium aphanidermatum; 37.4% in the assay on Fusarium graminearum; 27.5% in the assay with Botrytis cinerea; 0% with Pleurotus ostreatus; 0% in the assay with Pyricularia oryzae. The inhibition of growth at 50 ppm in the assay on Gaeumannomyces graminis was found to be 0%.

Take `N=C1S/C(=C\c2ccccc2[N+](=O)[O-])C(=O)N1c1nc(-c2cc(F)c(Cl)cc2Cl)cs1`: the inhibition of growth at 50 ppm with Aspergillus niger worked out at 49.7%; in the assay with Pythium aphanidermatum it was 0%; with Fusarium graminearum, 48.5%; with Botrytis cinerea, 2%; in the assay with Pleurotus ostreatus, 15.2%; in the assay with Pyricularia oryzae it was 50.4%. The inhibition of growth at 50 ppm with Gaeumannomyces graminis is 0%.

With `N=C1S/C(=C\c2cccc([N+](=O)[O-])c2)C(=O)N1c1nc(-c2ccccc2)cs1`, the inhibition of growth at 50 ppm with Aspergillus niger was 49.7%; in the assay on Pythium aphanidermatum, 25%; with Fusarium graminearum, 20.6%; with Botrytis cinerea it was 0%; in the assay with Pleurotus ostreatus it was 5.9%; in the assay on Pyricularia oryzae, 3.2%. In addition, the inhibition of growth at 50 ppm in the assay with Gaeumannomyces graminis stood at 0%.

For the compound `N=C1SCC(=O)N1c1nc(-c2ccccc2)cs1`, the inhibition of growth at 50 ppm was determined as 54.3% in the assay with Aspergillus niger; 8.8% with Pythium aphanidermatum; 21.1% in the assay on Fusarium graminearum; 3.5% in the assay with Botrytis cinerea; 82.6% in the assay on Pleurotus ostreatus; 58.8% in the assay on Pyricularia oryzae. For the same compound, the inhibition of growth at 50 ppm with Gaeumannomyces graminis worked out at 60%.

As for `N=C1S/C(=C\c2cccc([N+](=O)[O-])c2)C(=O)N1c1nc(-c2ccc([N+](=O)[O-])cc2)cs1`, the inhibition of growth at 50 ppm was determined as 52.3% in the assay on Aspergillus niger; 0% in the assay with Pythium aphanidermatum; 51.6% in the assay on Fusarium graminearum; 4.7% in the assay on Botrytis cinerea; 29.8% in the assay with Pleurotus ostreatus; 0% in the assay on Pyricularia oryzae. Moreover, the inhibition of growth at 50 ppm with Gaeumannomyces graminis is 0%.

Regarding `N=C1S/C(=C\c2ccccc2[N+](=O)[O-])C(=O)N1c1nc(-c2ccc(Cl)cc2)cs1`, the inhibition of growth at 50 ppm with Aspergillus niger is 60.8%; with Pythium aphanidermatum, 12.5%; in the assay on Fusarium graminearum, 58.8%; in the assay with Botrytis cinerea it was 66.7%; with Pleurotus ostreatus it was 84.8%; with Pyricularia oryzae, 14.8%. Also, the inhibition of growth at 50 ppm in the assay on Gaeumannomyces graminis was 0%.

On to `N=C1S/C(=C\c2cccc([N+](=O)[O-])c2)C(=O)N1c1nc(-c2ccc(Cl)cc2)cs1`, for which the inhibition of growth at 50 ppm in the assay on Aspergillus niger was found to be 58.8%; in the assay on Pythium aphanidermatum it was 16.3%; in the assay on Fusarium graminearum, 61.9%; in the assay on Botrytis cinerea, 71.3%; in the assay with Pleurotus ostreatus it was 84.1%; in the assay with Pyricularia oryzae, 26.5%. For the same compound, the inhibition of growth at 50 ppm with Gaeumannomyces graminis stood at 0%.

With `N=C1S/C(=C\c2cccc([N+](=O)[O-])c2)C(=O)N1c1nc(-c2cc(F)c(Cl)cc2Cl)cs1`, the inhibition of growth at 50 ppm is 69.3% in the assay on Aspergillus niger; 33.8% in the assay on Pythium aphanidermatum; 45.4% in the assay with Fusarium graminearum; 24.7% with Botrytis cinerea; 32.6% with Pleurotus ostreatus; 11.7% in the assay with Pyricularia oryzae. Also, the inhibition of growth at 50 ppm with Gaeumannomyces graminis came to 0%.

Regarding `N=C1SCC(=O)N1c1nc(-c2ccc(Cl)cc2Cl)cs1`, the inhibition of growth at 50 ppm turned out to be 62.8% in the assay on Aspergillus niger; 0% with Pythium aphanidermatum; 48.6% with Fusarium graminearum; 0% with Botrytis cinerea; 97.2% in the assay with Pleurotus ostreatus; 79.4% in the assay with Pyricularia oryzae. Besides, the inhibition of growth at 50 ppm in the assay with Gaeumannomyces graminis amounted to 86.7%.

Turning to `N=C1SCC(=O)N1c1nc(-c2ccc(Cl)cc2)cs1`, the inhibition of growth at 50 ppm came out at 52.3% in the assay with Aspergillus niger; 3.8% with Pythium aphanidermatum; 29.7% in the assay with Fusarium graminearum; 0% in the assay with Botrytis cinerea; 72.4% in the assay with Pleurotus ostreatus; 58.8% with Pyricularia oryzae. In the assay with Gaeumannomyces graminis, the inhibition of growth at 50 ppm turned out to be 51.3%.

With `N=C1SCC(=O)N1c1nc(-c2ccc([N+](=O)[O-])cc2)cs1`, the inhibition of growth at 50 ppm with Aspergillus niger amounted to 56.2%; in the assay with Pythium aphanidermatum, 8.8%; with Fusarium graminearum, 2.2%; in the assay with Botrytis cinerea it was 0%; with Pleurotus ostreatus, 12.4%; in the assay with Pyricularia oryzae, 38.1%. Also, the inhibition of growth at 50 ppm with Gaeumannomyces graminis was 26.7%.

For the compound `N=C1S/C(=C\c2ccccc2)C(=O)N1c1nc(-c2cc(F)c(Cl)cc2Cl)cs1`, the inhibition of growth at 50 ppm with Aspergillus niger came to 47.7%; in the assay with Pythium aphanidermatum, 0%; in the assay with Fusarium graminearum it was 38.1%; in the assay with Botrytis cinerea it was 28.7%; with Pleurotus ostreatus, 11.5%; with Pyricularia oryzae it was 4.1%. Besides, the inhibition of growth at 50 ppm in the assay with Gaeumannomyces graminis turned out to be 0%.

For `N=C1S/C(=C\c2ccccc2Cl)C(=O)N1c1nc(-c2ccc([N+](=O)[O-])cc2)cs1`, the inhibition of growth at 50 ppm was found to be 42.7% in the assay on Aspergillus niger; 28% with Pythium aphanidermatum; 28% in the assay on Fusarium graminearum; 60.8% in the assay on Botrytis cinerea; 0% with Pleurotus ostreatus; 2.1% in the assay on Pyricularia oryzae. Further, in the assay with Gaeumannomyces graminis, the inhibition of growth at 50 ppm is 37.1%.

Regarding `N=C1SCC(=O)N1c1nc(-c2cc(F)c(Cl)cc2Cl)cs1`, the inhibition of growth at 50 ppm in the assay with Aspergillus niger was determined as 58.8%; in the assay with Pythium aphanidermatum, 12.5%; in the assay with Fusarium graminearum it was 38.8%; in the assay on Botrytis cinerea, 38.2%; in the assay on Pleurotus ostreatus, 95%; with Pyricularia oryzae, 76.3%. The inhibition of growth at 50 ppm in the assay with Gaeumannomyces graminis was 91.3%.

In the case of `N=C1S/C(=C\c2ccccc2[N+](=O)[O-])C(=O)N1c1nc(-c2ccccc2)cs1`, the inhibition of growth at 50 ppm was 54.3% in the assay on Aspergillus niger; 3.8% in the assay with Pythium aphanidermatum; 61.9% in the assay on Fusarium graminearum; 64.7% with Botrytis cinerea; 84.1% with Pleurotus ostreatus; 20.2% with Pyricularia oryzae. In addition, in the assay with Gaeumannomyces graminis, the inhibition of growth at 50 ppm amounted to 0%.

On to `N=C1S/C(=C\c2ccccc2[N+](=O)[O-])C(=O)N1c1nc(-c2ccc([N+](=O)[O-])cc2)cs1`, for which the inhibition of growth at 50 ppm worked out at 62.8% in the assay with Aspergillus niger; 16.3% in the assay on Pythium aphanidermatum; 24.7% in the assay with Fusarium graminearum; 33.3% in the assay on Botrytis cinerea; 7.2% in the assay on Pleurotus ostreatus; 3.2% with Pyricularia oryzae. In addition, in the assay with Gaeumannomyces graminis, the inhibition of growth at 50 ppm amounted to 0%.

As to `N=C1S/C(=C\c2ccccc2Cl)C(=O)N1c1nc(-c2ccc(Cl)cc2)cs1`, the inhibition of growth at 50 ppm in the assay on Aspergillus niger amounted to 40.8%; with Pythium aphanidermatum, 46.2%; in the assay on Fusarium graminearum, 31.8%; in the assay with Botrytis cinerea, 0%; in the assay on Pleurotus ostreatus, 0%; in the assay on Pyricularia oryzae, 0%. The inhibition of growth at 50 ppm in the assay with Gaeumannomyces graminis turned out to be 0%.
